System: double-stranded DNA
Assay: Competition experiment against ethidium bromide (EB) for binding to EB-saturated double-stranded DNA, gel electrophoresis fluorescence readout
From the text: A competition experiment was designed to obtain an estimate of the nucleic acid intercalating property of the compound of the invention. The basis of this methodology involves the use of two intercalators, one fluorescent and one non-fluorescent. The fluorescent intercalator first saturates the double-stranded DNA. Then a second intercalator, in this case VFcTMEDA, is introduced into the system with gradual increasing concentration. […] For the competition experiment, the changes in fluorescent intensity were monitored during the displacement of DNA-bound fluorescent molecules by VFcTMEDA through an increasing concentration of the VFcTMEDA molecules in the system. A well-known threading intercalator, ethidium bromide (EB), was chosen as our fluorescent indicator.
Subsequently, VFcTMEDA was studied with respect to its ability to compete against EB for binding to DNA using the same approach. Different amounts of VFcTMEDA were mixed with the EB saturated double-stranded DNA to examine the bind ability. […] Lanes 1 to 5 correspond to different ratios of VFcTMEDA/EB.

Substance: vinylferrocene tetramethylethylenediamine [VFcTMEDA]
- enhancement of binding constant over EB (Kd of VFcTMEDA relative to EB): ~26 fold
- DNA-bound EB replaced (VFcTMEDA/EB molecular ratio 1/5 (second lane)): more than 50%

— patent publication US7030257B2, “Metallocenes and processes for their preparation” (Agency for Science, Technology and Research, priority 2004, dated 2006)
